Experimental data reported in patent US12116362B2, “Monocyclic compounds useful as GPR120 modulators” (Valo Health, Inc., priority 2016, dated 2024).

Experiments:
human GPR120 [1] = target: T1, human GPR120 (Homo sapiens, UniProt Q5NUL3); experiment: Human GPR120 Calcium-Release Assay (aequorin luminescence, CHO-K1 cells); type: cell-based; conditions: pEC50=−log(EC50) from curve fit; short variant of human GPR120 in CHO-K1 with Gα16 and apoaequorin; read-out: Ca2+ pEC50 (converted)
T1 construct: expressed in transfected cells; host or cells: CHO-K1 coexpressing Gα16 and mitochondrial apoaequorin
T1 sequence (Q5NUL3 1-361): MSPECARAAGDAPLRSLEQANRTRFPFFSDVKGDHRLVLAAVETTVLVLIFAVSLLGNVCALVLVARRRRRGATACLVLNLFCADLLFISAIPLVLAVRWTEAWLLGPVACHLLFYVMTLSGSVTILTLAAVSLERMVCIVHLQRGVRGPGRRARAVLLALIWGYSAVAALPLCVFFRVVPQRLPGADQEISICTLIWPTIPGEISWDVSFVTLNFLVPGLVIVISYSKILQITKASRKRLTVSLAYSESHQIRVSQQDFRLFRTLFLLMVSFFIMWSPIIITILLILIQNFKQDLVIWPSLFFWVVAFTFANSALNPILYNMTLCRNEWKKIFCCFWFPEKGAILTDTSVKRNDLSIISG
Description: This in vitro assay tests compounds' ability to activate heterologously expressed human GPR120 via G-protein coupling leading to generation of inositol 1,4,5-triphosphate and mobilization of intracellular calcium. This functional cellular assay is based on the luminescence of mitochondrial aequorin following intracellular Ca^2+ release. Aequorin is a photoprotein isolated from the jellyfish Aequorea victoria. The active protein is formed in the presence of molecular oxygen from apoaequorin and its cofactor coelenterazine. Binding of Ca^2+ to the active protein induces a conformational change, resulting in oxidation of coelenterazine and subsequent blue luminescence.
The short variant of the human GPR120 receptor (GenBank accession Number AAI01176) was stably expressed in a CHO-K1 cell line coexpressing Gα16 and mitochondrial apoaequorin.
Cells were grown to mid-log phase in culture media without antibiotics, were detached with PBS/EDTA, centrifuged and resuspended in assay buffer (DMEM-F12 medium with 15 mM HEPES pH 7.0 and 0.1% protease free BSA) at a concentration of 10^6 cells/mL. Cells were incubated at room temperature for at least 4 hours with 5 μM coelenterazine h.
Test compounds were dissolved in 100% DMSO to a concentration of 20 mM to provide stock solutions. Serial dilutions were performed from stock solutions in 100% DMSO to obtain intermediate concentrations 200-fold higher than the concentrations to be tested. Each sample was diluted 100-fold into assay buffer. 50 μl of these compound solutions were dispensed into each well of 96-well assay plates. The final concentration of compounds tested in the assay ranged from 5 nM to 100 μM. α-Linolenic acid was used as a reference compound. Each test was performed in duplicate.
To start the assay, 50 μl of cell suspension were added to each well of the assay plate. The resulting luminescence was recorded using a Hamamatsu Functional Drug Screening System 6000 (FDSS 6000), and raw data were expressed as relative light units (RLU).
(§1) To determine agonist potencies (EC50 values), non-linear least-squares curve fits of the raw data (RLU) were performed in the GraphPad Prism software package, using the 4-parameter model with variable Hill Slope:
Reported below in Table 1 are pEC50 values (pEC50=−log(EC50) from curve fit) for representative compounds of Formula I in this assay, Ca2+pEC50.

human GPR120 [2] = target: T2, human GPR120 (Homo sapiens, UniProt Q5NUL3); experiment: GPR120 β-Arrestin Recruitment Assay (PathHunter, CHO-K1 cells); type: cell-based; conditions: pEC50=−log(EC50) from curve fit, CHO-K1 cells, 90 min incubation; for EC50: read-out: β-Arr pEC50 (converted)
T2 construct: host or cells: CHO-K1
Description: This in vitro assay tests compounds' ability to activate intracellular signaling via 3-Arrestin recruitment to heterologously expressed human GPR120. This functional cellular assay utilizes enzyme fragment complementation with β-galactosidlase (β-gal) as a functional reporter (DiscoveRx PathlHunter® β-Arrestin assay platform). The human (GPR120 receptor (GenBank accession Number NM_181745) was fused in frame with the small enzyme fragment ProLink™ and co-expressed in CHO-K1 cells with a fusion protein of β-Arrestin 2 and the larger, N-terminal deletion mutant of β-gal. Activation by a GPR120 agonist stimulates binding of β-arrestin to the ProLink-tagged GPCR and forces complementation of the two enzyme fragments, resulting in the formation of an active β-gal enzyme. This interaction leads to an increase in enzyme activity that can be measured using chemiluminescent PathHunter® Detection Reagents.
One day prior to the assay, cells were seeded in a total volume of 20 μl of growth medium into white walled 384-well microplates and incubated at 37° C./5% CO2 overnight. On the day of the assay, growth medium was removed and 20 μl assay buffer (HBSS+10 mM HEPES+0.1% heat-inactivated BSA) were added to each well.
Test compounds were dissolved in 100% DMSO to a concentration of 10 mM to provide stock solutions. Serial dilutions were performed from stock solutions into assay buffer to obtain intermediate concentrations of 5-fold higher than the concentrations to be tested. 5 μl of the 5× compound solutions were added to the cells and the assay plates were incubated at 37° C. for 90 minutes. The final concentration of compounds tested in the assay ranged from 1.5 nM to 100 μM. Following incubation, 12.5 μl of PathHunter® detection reagent were added to each well, and plates were incubated at room temperature for 60 minutes. Chemiluminescence was read using an EnVision plate reader (PerkinElmer), raw data were expressed as relative light units (RLU).
as §1
T2 sequence (Q5NUL3 1-377 isoform Q5NUL3-1): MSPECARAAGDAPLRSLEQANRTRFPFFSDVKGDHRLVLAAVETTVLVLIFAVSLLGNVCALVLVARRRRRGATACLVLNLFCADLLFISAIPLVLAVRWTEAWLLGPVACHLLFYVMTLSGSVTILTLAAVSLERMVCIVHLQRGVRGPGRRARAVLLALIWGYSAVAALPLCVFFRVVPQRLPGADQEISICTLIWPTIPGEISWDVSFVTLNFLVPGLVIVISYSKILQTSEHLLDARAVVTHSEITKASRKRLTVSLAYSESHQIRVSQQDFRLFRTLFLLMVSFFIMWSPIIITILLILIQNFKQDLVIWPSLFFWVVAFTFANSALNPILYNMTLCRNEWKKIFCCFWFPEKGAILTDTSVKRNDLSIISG
T2 sequence (P32121 whole entry partner): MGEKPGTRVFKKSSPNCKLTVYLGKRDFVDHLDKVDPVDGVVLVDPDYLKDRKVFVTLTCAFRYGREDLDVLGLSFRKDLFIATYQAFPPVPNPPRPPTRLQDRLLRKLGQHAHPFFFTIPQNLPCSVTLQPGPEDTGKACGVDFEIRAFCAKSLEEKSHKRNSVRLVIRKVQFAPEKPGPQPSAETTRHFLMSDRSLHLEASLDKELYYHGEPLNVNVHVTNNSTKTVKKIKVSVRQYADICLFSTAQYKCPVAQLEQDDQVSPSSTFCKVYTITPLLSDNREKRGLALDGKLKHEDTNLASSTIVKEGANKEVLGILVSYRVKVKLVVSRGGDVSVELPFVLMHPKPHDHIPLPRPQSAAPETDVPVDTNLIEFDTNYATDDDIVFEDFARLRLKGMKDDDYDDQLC
Reported below in Table 1 are pEC50 values (pEC50=−log(EC50) from curve fit) for compounds of Formula I in this assay, β-Arr pEC50 Alternatively, percent activation at a single concentration is reported.

| Compound | EC50 (human GPR120 [1]) [nM] | EC50 (human GPR120 [2]) [nM] | β-Arr pEC50 (human GPR120 [2]) |
| --- | --- | --- | --- |
| O=S1(=O)c2ccccc2CN1c1ccnc(Oc2cccnc2)n1 [Compound 1] | 7940 | – | – |
| O=S1(=O)c2ccccc2CN1c1ccnc(Oc2ccccc2)n1 [Compound 16] | 1260 | 6310 | – |
| Cc1cncc(Oc2nccc(N3Cc4ccccc4S3(=O)=O)n2)c1 [Compound 19] | 794 | 5010 | – |
| O=S1(=O)c2ccccc2CN1c1ccnc(Oc2ccccc2Cl)n1 [Compound 20] | 3980 | 6310 | – |
| O=S1(=O)c2ccccc2CN1c1ccnc(Oc2ccc(Cl)cc2)n1 [Compound 21] | 501 | > 7940 | – |
| O=S1(=O)c2ccccc2CN1c1ccnc(Oc2cccc(Cl)c2)n1 [Compound 22] | > 100000 | 1580 | – |
| O=S1(=O)c2ccccc2CN1c1ccnc(Oc2ccc(Cl)c(Cl)c2)n1 [Compound 33] | > 100000 | – | – |
| Cc1ccc(Oc2nccc(N3Cc4ccccc4S3(=O)=O)n2)cc1Cl [Compound 34] | 200 | 1580 | – |
| Cc1cc(Oc2nccc(N3Cc4ccccc4S3(=O)=O)n2)ccc1Cl [Compound 35] | > 100000 | 1580 | – |
| O=S1(=O)c2ccccc2CN1c1ccnc(Oc2ccc(OC(F)(F)F)cc2Cl)n1 [Compound 36] | 7940 | 631 | – |
| O=S1(=O)c2ccccc2CN1c1ccnc(Oc2cccc(F)c2)n1 [Compound 37] | 200 | 1000 | – |
| O=S1(=O)c2ccccc2CN1c1ccnc(Oc2ccc(Br)cc2)n1 [Compound 41] | 794 | 2510 | – |
| O=S1(=O)c2ccccc2CN1c1ccnc(Oc2ccc(F)cc2)n1 [Compound 42] | 316 | 1000 | – |
| COc1ccc(Oc2nccc(N3Cc4ccccc4S3(=O)=O)n2)cc1 [Compound 44] | 1580 | > 10000 | – |
| O=S1(=O)c2ccccc2CN1c1ccnc(Oc2ccc(OCc3ccccc3)cc2)n1 [Compound 45] | > 100000 | 1580 | – |
| COc1cncc(Oc2nccc(N3Cc4ccccc4S3(=O)=O)n2)c1 [Compound 50] | 6310 | 5010 | – |
| O=S1(=O)c2ccccc2CN1c1ccnc(Oc2cncc(Cl)c2)n1 [Compound 51] | 1000 | – | – |
| O=S1(=O)c2ccccc2CN1c1ccnc(Oc2ccccc2F)n1 [Compound 56] | 794 | > 10000 | – |
| O=S1(=O)c2ccccc2CN1c1ccnc(OC2CCC2)n1 [Compound 58] | 631 | 2510 | – |
| O=S1(=O)c2ccccc2CN1c1ccnc(OC2CCCCC2)n1 [Compound 59] | 12600 | 6310 | – |
| O=S1(=O)c2ccccc2CN1c1ccnc(OC2CCCC2)n1 [Compound 60] | 501 | 1580 | – |
| CN1CC(Oc2nccc(N3Cc4ccccc4S3(=O)=O)n2)C1 [Compound 61] | > 100000 | > 31600 | – |
| CN1CCC(Oc2nccc(N3Cc4ccccc4S3(=O)=O)n2)C1 (centres unmarked) [Compound 63] | > 100000 | 501 | – |
| CCOc1nccc(N2Cc3ccccc3S2(=O)=O)n1 [Compound 67] | 6310 | > 10000 | – |
| O=S1(=O)c2ccccc2CN1c1ccnc(OCc2ccccn2)n1 [Compound 72] | > 100000 | > 10000 | – |
| Cc1cc(N2Cc3ccccc3S2(=O)=O)nc(Oc2cccnc2)n1 [Compound 77] | 1000 | 2510 | – |

| Compound | EC50 (human GPR120 [1]) [nM] | EC50 (human GPR120 [2]) [nM] | β-Arr pEC50 (human GPR120 [2]) |
| --- | --- | --- | --- |
| O=S1(=O)c2ccccc2CN1c1cc(C(F)(F)F)nc(Oc2cccnc2)n1 [Compound 78] | 3980 | 1580 | – |
| COc1cc(N2Cc3ccccc3S2(=O)=O)nc(Oc2cccnc2)n1 [Compound 79] | 501 | 1580 | – |
| COc1cc(Oc2cccnc2)nc(N2Cc3ccccc3S2(=O)=O)n1 [Compound 80] | 2510 | 501 | – |
| CCc1cc(N2Cc3ccccc3S2(=O)=O)nc(Oc2cccnc2)n1 [Compound 82] | 1260 | 2510 | – |
| O=S1(=O)c2ccccc2CN1c1cc(C2CC2)nc(Oc2cccnc2)n1 [Compound 83] | 794 | 2510 | – |
| Cc1cc(N2Cc3ccccc3S2(=O)=O)nc(Oc2ccc(Cl)cc2)n1 [Compound 86] | 398 | 251 | – |
| Cc1cc(Oc2ccc(Cl)cc2)nc(N2Cc3ccccc3S2(=O)=O)n1 [Compound 87] | 1580 | 794 | – |
| CNC(=O)c1cc(N2Cc3ccccc3S2(=O)=O)nc(Oc2ccc(Cl)cc2)n1 [Compound 89] | 20000 | 2510 | – |
| COc1cc(N2Cc3ccccc3S2(=O)=O)nc(OC2CC(F)(F)C2)n1 [Compound 93] | 631 | – | – |
| COc1cc(Oc2ccc(Cl)cc2)nc(N2Cc3ccccc3S2(=O)=O)n1 [Compound 96] | > 10000 | 1000 | – |
| O=S1(=O)c2ccccc2CN1c1cccc(OC2CCC2)n1 [Compound 126] | – | > 31600 | – |
| O=C1c2ncccc2CN1c1cccc(Oc2cccnc2)n1 [Compound 127] | – | > 31600 | – |
| O=C1c2ccccc2CN1c1cccc(Oc2cccc(Cl)c2)n1 [Compound 130] | – | > 31600 | – |
| COc1ccc2c(c1)S(=O)(=O)N(c1cccc(Oc3cccnc3)n1)C2 [Compound 132] | – | > 31600 | – |
| COc1ccc2c(c1)CN(c1cccc(Oc3cccnc3)n1)S2(=O)=O [Compound 133] | – | > 31600 | – |
| Cc1cc(Oc2cccnc2)nc(N2Cc3cccnc3C2=O)c1 [Compound 135] | – | > 10000 | – |
| Cc1cc(Oc2cccnc2)nc(N2Cc3ccccc3S2(=O)=O)c1 [Compound 136] | – | 631 | – |
| CNC(=O)c1cc(Oc2ccc(Cl)cc2)nc(N2Cc3ccccc3S2(=O)=O)c1 [Compound 137] | – | 2510 | – |
| CC(=O)Nc1cc(Oc2ccc(Cl)cc2)nc(N2Cc3ccccc3S2(=O)=O)c1 [Compound 138] | – | 3160 | – |
| CN(C)C(=O)c1cc(Oc2ccc(Cl)cc2)nc(N2Cc3ccccc3S2(=O)=O)c1 [Compound 139] | – | > 10000 | – |
| O=S1(=O)c2ccccc2CN1c1cc(C(F)(F)F)cc(Oc2cccnc2)n1 [Compound 140] | – | 1000 | – |
| O=S1(=O)c2ccccc2CN1c1cc(C(F)(F)F)cc(OC2CC(F)(F)C2)n1 [Compound 141] | – | 6310 | – |
| Cc1nc(Oc2ccc(Cl)cc2)nc(N2Cc3ccccc3S2(=O)=O)n1 [Compound 143] | – | – | <4.5 |
| Cc1nc(Oc2ccc(Cl)cc2)nc(N2Cc3ccccc3S2(=O)=O)n1 [Compound 144] | – | 2000 | – |
| O=S1(=O)c2ccccc2CN1c1ncnc(Oc2cccnc2)n1 [Compound 146] | – | 15800 | – |
